Reference: PubChem BioAssay (NCI)
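At the GI50, growth is halved. TGI is the concentration that stops growth completely.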

Tests used:
Experiment in all cases: NCI tumour cell line growth inhibition, 384-well format
NCI-H226 lung = system: NCI-H226 lung
CCRF-CEM leukemia = system: CCRF-CEM leukemia
SF-295 CNS = system: SF-295 CNS
SK-OV-3 ovarian = system: SK-OV-3 ovarian
OVCAR-8 ovarian = system: OVCAR-8 ovarian
M14 melanoma = system: M14 melanoma
RXF 393 renal = system: RXF 393 renal
K-562 leukemia = system: K-562 leukemia
MDA-MB-468 breast = system: MDA-MB-468 breast
786-0 renal = system: 786-0 renal
HOP-62 NSCLC = system: HOP-62 NSCLC
MALME-3M melanoma = system: MALME-3M melanoma
HCT-116 colon = system: HCT-116 colon
EKVX NSCLC = system: EKVX NSCLC
ACHN renal = system: ACHN renal
MCF7 breast = system: MCF7 breast
MDA-MB-231 breast = system: MDA-MB-231 breast
CAKI-1 renal = system: CAKI-1 renal
MDA-MB-435 melanoma = system: MDA-MB-435 melanoma
RPMI-8226 leukemia = system: RPMI-8226 leukemia
UACC-257 melanoma = system: UACC-257 melanoma
BT-549 breast = system: BT-549 breast
SF-539 CNS = system: SF-539 CNS
A498 renal = system: A498 renal
UO-31 renal = system: UO-31 renal
NCI/ADR-RES ovarian = system: NCI/ADR-RES ovarian

`COc1cccc2c1C(=O)c1c(O)c3c(c(O)c1C2=O)C[C@@](O)(C(C)=O)C[C@@H]3OC1CC(N)C(O)C(C)O1` (some centres undefined) showed a TGI (NCI-H226 lung) of 282 nM, a TGI (CCRF-CEM leukemia) of 16.9 nM and a GI50 (SF-295 CNS) of 32.1 nM. It also gave a TGI (SF-295 CNS) of 114 nM, a GI50 (SK-OV-3 ovarian) of 36.7 nM and a TGI (SK-OV-3 ovarian) of 181 nM. For the same compound, the GI50 (OVCAR-8 ovarian) was 37 nM, the TGI (OVCAR-8 ovarian) was 197 nM and the GI50 (M14 melanoma) was 21.8 nM. The TGI (M14 melanoma) was 135 nM, the GI50 (RXF 393 renal) was 102 nM and the TGI (RXF 393 renal) was 237 nM. It also gave a GI50 (K-562 leukemia) of 14.6 nM, a TGI (K-562 leukemia) of 138 nM and a GI50 (MDA-MB-468 breast) of 10.7 nM. The TGI (MDA-MB-468 breast) was 24 nM, the GI50 ([…]-0 renal) was 31 nM and the TGI (786-0 renal) was 1200 nM. It also gave a GI50 (HOP-62 NSCLC) of 19.4 nM, a TGI (HOP-62 NSCLC) of 73.8 nM and a GI50 (MALME-3M melanoma) of 44.5 nM. It also gave a TGI (MALME-3M melanoma) of 176 nM, a GI50 (HCT-116 colon) of 14.6 nM and a TGI (HCT-116 colon) of 1970 nM. The GI50 (EKVX NSCLC) was 283 nM, the TGI (EKVX NSCLC) was 1650 nM and the GI50 (ACHN renal) was 69.5 nM. It also gave a TGI (ACHN renal) of 265 nM, a GI50 (MCF7 breast) of 21.5 nM and a TGI (MCF7 breast) of 10500 nM. For the same compound, the GI50 (MDA-MB-231 breast) was 24.3 nM, the TGI (MDA-MB-231 breast) was 133 nM and the GI50 (CAKI-1 renal) was 48.6 nM. It also gave a TGI (CAKI-1 renal) of 440 nM, a GI50 (MDA-MB-435 melanoma) of 103 nM and a TGI (MDA-MB-435 melanoma) of 260 nM. The TGI (RPMI-8226 leukemia) was 20.9 nM, the GI50 (UACC-257 melanoma) was 90.2 nM and the TGI (UACC-257 melanoma) was 216 nM. For the same compound, the GI50 (BT-549 breast) was 17.9 nM, the TGI (BT-549 breast) was 94.7 nM and the GI50 (SF-539 CNS) was 13.5 nM. It also gave a TGI (SF-539 CNS) of 115 nM, a GI50 (A498 renal) of 28.2 nM and a TGI (A498 renal) of 199 nM. For the same compound, the GI50 (UO-31 renal) was 303 nM, the TGI (UO-31 renal) was 1470 nM and the GI50 (NCI/ADR-RES ovarian) was 1520 nM. For the same compound, the TGI (NCI/ADR-RES ovarian) was 3390 nM.
